According to patent US20100197787A1, “Composition for Prevention of Hypoglycemic Condition” (priority 2005, published 2010):

How the values were obtained:
[1] = test system: rat brain cells; assay: Promoting activity of orally administered branched amino acid in incorporation of carbohydrate into the brain (2DG-6P amount); assay type: in vivo; settings: 1 hour after oral administration of suspension, 0.45 g/15 mL/kg BW, male Wistar rats, versus control group (physiological saline), FIG. 1
Protocol: Leucine group: An L-leucine suspension prepared by adding 3 g L-leucine to 100 mL physiological saline and suspending it with a homogenizer was used as a test solution of leucine group. Isoleucine group: An L-isoleucine suspension prepared by adding 3 g L-isoleucine to 100 mL physiological saline and suspending it with a homogenizer was used as a test solution of isoleucine group. Male 6-week-old Wistar rats (Charles River Japan, Inc.) were kept for 14 days and given free access to food (purified feed: AIN-93G manufactured by Nippon Nosan Kogyo Co., Ltd.) and water. At the age of 8-week-old, the rats were grouped depending on the body weight into 3 groups (control group, leucine group and isoleucine group). After the grouping, under ether anesthesia, the cervical region of each rat was opened, and a catheter was inserted into the jugular vein. The other end of the catheter was passed subcutaneously, exposed on the back and connected via a harness to, and fixed to, a swivel. Then each rat was housed in a separate metabolism cage. Physiological saline was administered via the catheter continuously at a rate of 1 mL/hr/body to the rat. […] 20 μL of the plasma was placed in a vial for liquid scintillation counter measurement, and then 5 mL scintillator was added to and mixed with the plasma, which was then measured for its tritium level (count) with a liquid scintillation counter to determine the amount of 2DG. The blood glucose level was measured by a glucose oxidase dye method. […] 900 μL of the separated supernatant was placed in a vial for liquid scintillation counter measurement, and then 5 mL scintillator was added to and mixed with the supernatant, which was then measured for its tritium level (count) with a liquid scintillation counter to determine the amount of 2DG. […] 900 μL of the separated supernatant was placed in a vial for liquid scintillation counter measurement, and then 10 mL scintillator was added to and mixed with the supernatant, which was then measured for its tritium level (count) with a liquid scintillation counter to determine the amount of 2DG and 2DG-6P. […]

[2] = test system: rat brain cells; assay: Promoting activity of intravenously administered BCAA in incorporation of carbohydrate into the brain (2DG-6P amount); assay type: in vivo; settings: at 24 hours after intravenous administration, 1.5% by mass in 5% by mass glucose, 10 mL/kg/hr, male SD rats, versus control group (5% glucose) and mixed amino acid group, FIG. 2
Text: Control group: A solution prepared by dissolving glucose at a concentration of 5% by mass in purified water was used as the test solution for the control group. Mixed amino acid group: A solution prepared by dissolving […] (registered trademark, manufactured by Otsuka Pharmaceutical Co., Ltd.) at a concentration of 1.5% by mass in purified water containing 5% by mass glucose was used as the test solution for the mixed amino acid group. Leucine group: A solution prepared by dissolving L-leucine at a concentration of 1.5% by mass in purified water containing 5% by mass glucose was used as the test solution for the leucine group. Isoleucine group: A solution prepared by dissolving L-isoleucine at a concentration of 1.5% by mass in purified water containing 5% by mass glucose was used as the test solution for the isoleucine group. Valine group: A solution prepared by dissolving L-valine at a concentration of 1.5% by mass in purified water containing 5% by mass glucose was used as the test solution for the valine group. Male […] SD rats (Nippon Clare) were kept for 14 days and given free access to food (purified feed: AIN-93G manufactured by Nippon Nosan Kogyo Co., Ltd.) and water. At the age of 8-week-old, the rats were grouped depending on the body weight into 5 groups (control group, mixed amino acid group, leucine group, isoleucine group and valine group). After the grouping, under ether anesthesia, the cervical region of each rat was opened, and a catheter was inserted into the jugular vein. The other end of the catheter was passed subcutaneously, exposed on the back and connected via a harness to, and fixed to, a swivel. Then each rat was housed in a separate metabolism cage. […] The separated plasma was measured for its 2DG level and blood glucose level in the same manner as in the test method in Test Example 1. […] After blood removal, the brain tissue was removed, mixed with 1N NaOH that was 4 parts of the brain tissue by weight, and then heated in a water bath at 60° C. for 1 hour to lyse the brain tissue. To the brain tissue lysate solution, 1N HCl in the same amount as that of 1N NaOH was added, thereby neutralizing the solution to give a neutralized homogenate of the brain tissue. The amount of 2DG-6P in the neutralized homogenate was measured in the same manner as in the test method in Test Example 1, to determine the amount of the carbohydrate incorporated into the brain cells. In statistical processing, after analysis of variance, Dunnett's multiple comparison with the control was carried out to test significant difference.

Row | Structure (SMILES) | amount of the carbohydrate incorporated into brain cells (amount of 2DG-6P) [1] | amount of the carbohydrate incorporated into brain cells (amount of 2DG-6P) ([1]; listed as isoleucine) | amount of the carbohydrate incorporated into brain cells (amount of 2DG-6P) [2] | amount of the carbohydrate incorporated into brain cells (amount of 2DG-6P) ([2]; listed as isoleucine) | amount of the carbohydrate incorporated into brain cells (amount of 2DG-6P) ([2]; listed as valine)
1 | CC[C@H](C)[C@H](N)C(=O)O [L-isoleucine] | higher than that of the control group | significantly promoted | higher than that of the control group and of the mixed amino acid group | tendency to promote incorporation of the carbohydrate into brain cells was recognized | –
2 | CC(C)C[C@H](N)C(=O)O [L-leucine] | higher than that of the control group | – | higher than that of the control group and of the mixed amino acid group | – | –
3 | CC(C)[C@H](N)C(=O)O [L-valine] | – | – | higher than that of the control group and of the mixed amino acid group | – | tendency to promote incorporation of the carbohydrate into brain cells was recognized
